Active and inactive are the calls of the source. The calls are words filed in the database; no cut-off is given here.
Experiments:
[1] = Antiproliferative activity against human K562/4 cells after 72 hrs by MTT assay; conditions: K562/4, 72 h
cells = conditions: Homo sapiens, HCT-116, 72 h
Description: Antiproliferative activity against human HCT116 cells after 72 hrs by MTT assay

L1210 = assay: cells; conditions: Mus musculus, L1210, 48 h
Description: Antiproliferative activity against mouse L1210 cells after 48 hrs by MTT assay

HeLa = assay: Antiproliferative activity against human HeLa cells after 72 hrs by MTT assay; format: functional, cell-based
K562 [2] = assay: cells; conditions: Homo sapiens, K562, 72 h
Description: Antiproliferative activity against human K562 cells after 72 hrs by MTT assay

[3] = target: T1, DNA topoisomerase 1 (Homo sapiens) (UniProt P11387); assay: Poisoning activity at topoisomerase 1 (unknown origin) using 3'-[32P]dGTP labelled 117bp oligonucleotide assessed as induction of DNA cleavage at 1 uM incubated for 20 mins by SDS-PAGE analysis
T1 sequence (whole entry): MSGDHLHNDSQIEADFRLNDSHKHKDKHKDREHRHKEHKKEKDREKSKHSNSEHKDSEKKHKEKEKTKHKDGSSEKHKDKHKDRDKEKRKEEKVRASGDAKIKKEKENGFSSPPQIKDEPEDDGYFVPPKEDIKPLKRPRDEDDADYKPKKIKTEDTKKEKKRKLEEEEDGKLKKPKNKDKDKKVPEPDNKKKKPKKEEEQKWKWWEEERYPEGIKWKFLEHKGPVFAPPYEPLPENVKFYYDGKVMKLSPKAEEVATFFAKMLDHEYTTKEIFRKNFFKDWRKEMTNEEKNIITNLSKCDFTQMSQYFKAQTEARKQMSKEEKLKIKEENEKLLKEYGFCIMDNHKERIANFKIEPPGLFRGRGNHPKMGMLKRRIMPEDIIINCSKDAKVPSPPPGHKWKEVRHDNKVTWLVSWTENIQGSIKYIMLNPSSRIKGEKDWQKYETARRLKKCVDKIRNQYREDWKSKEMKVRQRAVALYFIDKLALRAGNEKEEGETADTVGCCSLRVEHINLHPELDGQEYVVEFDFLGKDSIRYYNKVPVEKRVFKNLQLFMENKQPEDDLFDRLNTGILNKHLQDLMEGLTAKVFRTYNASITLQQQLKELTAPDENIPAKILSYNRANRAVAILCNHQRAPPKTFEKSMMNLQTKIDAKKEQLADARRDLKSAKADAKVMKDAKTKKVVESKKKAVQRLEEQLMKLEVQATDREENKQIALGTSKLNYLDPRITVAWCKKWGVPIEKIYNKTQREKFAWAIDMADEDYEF

[4] = target: T1, DNA topoisomerase 1 (Homo sapiens); assay: Poisoning activity at topoisomerase 1 (unknown origin) using 3'-[32P]dGTP labelled 117bp oligonucleotide assessed as induction of DNA cleavage incubated for 20 mins by SDS-PAGE analysis
Calf thymus DNA = assay: Binding affinity to calf thymus DNA at 5 uM by fluorescence assay; format: nucleic-acid assay; conditions: Bos taurus
K562/4 = assay: Binding affinity to P-gp in human K562/4 cells assessed as drug accumulation at 1 uM incubated for 1 to 24 hrs by flow cytometry; format: cell-based
K562 [5] = assay: Binding affinity to P-gp in human K562 cells assessed as drug accumulation at 1 uM incubated for 1 to 24 hrs by flow cytometry; format: cell-based

Work on `Cc1oc2c(O)c3c(c(O)c2c1C(=O)N1CCN(C)CC1)C(=O)c1ccccc1C3=O` yielded an IC50 [1] of 5.9 µM, an IC50 (cells) of 11.5 µM and an IC50 (L1210) of 82 µM. For the same molecule, the IC50 (HeLa) was 104 µM and the IC50 (K562 [2]) was 1.6 µM.

In the case of `COc1cc2c3c(n(CCCNCCO)c(=O)c2cc1OC)-c1cc2c(cc1C3=O)OCO2`, the Activity [3] is reported as “Active”.

Molecule `O=C1c2ccccc2C(=O)c2c1c(O)c1[nH]cc(CN[C@@H]3CCNC3)c1c2O` has an IC50 [1] of 0.4 µM, an IC50 (cells) of 1.6 µM and an IC50 (L1210) of 0.07 µM. For the same molecule, the Activity [4] was “Active”.

With `COc1cccc2c1C(=O)c1c(O)c3c(c(O)c1C2=O)C[C@@](O)(C(=O)CO)C[C@@H]3O[C@H]1C[C@H](N)[C@H](O)[C@H](C)O1` the Activity (Calf thymus DNA) was “Active”, the Activity (K562/4) was “Active” and the Activity (K562 [5]) was “inactive”.

Work on `Cc1oc2c(O)c3c(c(O)c2c1C(=O)N[C@H]1CCNC1)C(=O)c1ccccc1C3=O` yielded an IC50 [1] of 0.8 µM, an IC50 (cells) of 0.25 µM and an IC50 (L1210) of 6.5 µM. The IC50 (HeLa) was 64 µM and the IC50 (K562 [2]) was 0.75 µM.

Work on `Cc1oc2c(O)c3c(c(O)c2c1C(=O)N1CCNC(C)C1)C(=O)c1ccccc1C3=O` (centres undefined) yielded an IC50 [1] of 3 µM, an IC50 (cells) of 1.3 µM and an IC50 (L1210) of 3.7 µM. It also gave an IC50 (HeLa) of 0.9 µM and an IC50 (K562 [2]) of 0.9 µM.

With `CC[C@@]1(O)C(=O)OCc2c1cc1n(c2=O)Cc2cc3ccccc3nc2-1` the Activity [3] was “Active”.

`Cc1oc2c(O)c3c(c(O)c2c1C(=O)NC1CCCNC1)C(=O)c1ccccc1C3=O` (centres undefined) showed an IC50 [1] of 0.35 µM, an IC50 (cells) of 1.6 µM and an IC50 (L1210) of 3 µM. For the same molecule, the IC50 (HeLa) was 3.4 µM and the IC50 (K562 [2]) was 0.6 µM.

For `Cc1oc2c(O)c3c(c(O)c2c1C(=O)N1CCC(N)CC1)C(=O)c1ccccc1C3=O`, the IC50 [1] was 0.4 µM, the IC50 (cells) was 2 µM and the IC50 (L1210) was 13 µM. For the same molecule, the IC50 (HeLa) was 9.7 µM and the IC50 (K562 [2]) was 2.1 µM.

In the case of `Cc1oc2c(O)c3c(c(O)c2c1C(=O)N[C@@H]1CCNC1)C(=O)c1ccccc1C3=O`, the IC50 [1] is reported as 0.75 µM, the IC50 (cells) is reported as 0.3 µM and the IC50 (L1210) is reported as 5.4 µM. The IC50 (HeLa) was 9.5 µM and the IC50 (K562 [2]) was 0.7 µM.

In the case of `Cc1oc2c(O)c3c(c(O)c2c1C(=O)N1CCCC(N)C1)C(=O)c1ccccc1C3=O` (centres undefined), the IC50 [1] is reported as 0.7 µM, the IC50 (cells) is reported as 1.5 µM and the IC50 (L1210) is reported as 5.6 µM. It also gave an IC50 (HeLa) of 1.4 µM and an IC50 (K562 [2]) of 0.85 µM.

With `Cc1oc2c(O)c3c(c(O)c2c1C(=O)N1CCNCC1C)C(=O)c1ccccc1C3=O` (centres undefined) the IC50 [1] was 4.8 µM, the IC50 (cells) was 1.6 µM and the IC50 (L1210) was 3.7 µM. It also gave an IC50 (HeLa) of 0.7 µM and an IC50 (K562 [2]) of 1.1 µM.

`Cc1oc2c(O)c3c(c(O)c2c1C(=O)N1CCNCC1)C(=O)c1ccccc1C3=O` showed an IC50 [1] of 2.8 µM, an IC50 (cells) of 2.3 µM and an IC50 (L1210) of 4.1 µM. It also gave an IC50 (HeLa) of 3.1 µM and an IC50 (K562 [2]) of 1.3 µM.

Molecule `Cc1oc2c(O)c3c(c(O)c2c1C(=O)NC1CCNCC1)C(=O)c1ccccc1C3=O` has an IC50 [1] of 4 µM, an IC50 (cells) of 1.2 µM and an IC50 (L1210) of 5.1 µM. It also gave an IC50 (HeLa) of 11 µM and an IC50 (K562 [2]) of 2.7 µM.

`Cc1oc2c(O)c3c(c(O)c2c1C(=O)NC1CN2CCC1CC2)C(=O)c1ccccc1C3=O` (centres undefined) showed an IC50 [1] of 0.65 µM, an IC50 (cells) of 0.9 µM and an IC50 (L1210) of 2.4 µM. For the same molecule, the IC50 (HeLa) was 12 µM and the IC50 (K562 [2]) was 0.6 µM.

Reference: ChEMBL document CHEMBL3774310, “Discovery of antitumor anthra[2,3-b]furan-3-carboxamides: Optimization of synthesis and evaluation of antitumor properties” (Eur J Med Chem, 2016)
